In patent publication US5889147A (University of Utah Research Foundation, priority 1997, dated 1999):
Entries after “also recorded” stand apart in the source; their conditions may differ. Positions of bridges follow the written chain, without caps; N, C: chain ends. Non-standard residues stand in square brackets, D forms with d. Residues, ends and D or L forms follow the SMILES beside them. Trp(6-Br) = N[C@@H](Cc1c[nH]c2cc(Br)ccc12)C(=O)O; Hyp = O=C(O)[C@@H]1C[C@@H](O)CN1

What was measured:
mice [1] = details: mouse, in vivo
serotonin 5HT3 receptor = target: T1, serotonin 5HT3 receptor (Homo sapiens, UniProt P46098)
T1 sequence (P46098 24-478): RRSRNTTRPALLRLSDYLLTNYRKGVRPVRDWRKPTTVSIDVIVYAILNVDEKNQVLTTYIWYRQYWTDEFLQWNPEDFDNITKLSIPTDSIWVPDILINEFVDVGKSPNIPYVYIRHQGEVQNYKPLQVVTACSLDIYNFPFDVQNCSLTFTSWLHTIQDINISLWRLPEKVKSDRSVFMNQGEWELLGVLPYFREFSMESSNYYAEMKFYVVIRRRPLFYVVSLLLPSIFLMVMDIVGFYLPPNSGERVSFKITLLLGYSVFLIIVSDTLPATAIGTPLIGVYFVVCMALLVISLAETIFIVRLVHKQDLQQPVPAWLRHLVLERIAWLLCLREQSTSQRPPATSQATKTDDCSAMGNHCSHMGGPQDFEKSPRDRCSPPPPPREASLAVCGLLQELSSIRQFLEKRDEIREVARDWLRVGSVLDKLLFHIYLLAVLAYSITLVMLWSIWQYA

[2] = test system: Frings audiogenic seizure susceptible mice; details: mouse, in vivo
CF No. 1 mice = details: mouse, in vivo, sc
mice [3] = details: mouse

## NCC(=O)N[C@H]1CSSC[C@@H](C(N)=O)NC(=O)[C@H](Cc2c[nH]c3cc(Br)ccc23)NC(=O)[C@@H]2CCCN2C(=O)[C@H](CCC(=O)O)NC(=O)[C@@H](Cc2c[nH]c3ccccc23)NC(=O)[C@@H]2C[C@@H](O)CN2C1=O [bromocontryphan, GCX1 X2 EPX5 C--NH2, X1 is Hyp, X2 is D-Trp and X5 is 6-bromo-L-Trp] (H-GC[Hyp][dW]EP[Trp(6-Br)]C-NH2; disulfide 2-8)
Mice [1]
  biological activity in mammalian systems, compared with contryphan R and des[Gly1]contryphan R: very similar to the spectrum of activity previously observed for both contryphan R and des[Gly^1 ]contryphan R

## Gly-Cys-Thr-Arg-Thr-Cys-Gly-Gly-Xaa1 -Lys-Cys-Thr-Gly-Thr-Cys-Thr-Cys-Thr-Asn-Ser-Ser-Lys-Cys-Gly-Cys-Arg-Tyr-Asn-Val-His-Pro-Ser-Gly-Xaa2 -Gly-Cys-Gly-Cys-Ala-Cys-Ser, where Xaa1 is Hyp and Xaa2 is 6-bromo-L-tryptophan [sigma conotoxin]
Serotonin 5HT3 receptor
  receptor targeted: targets the serotonin 5HT3 receptor

## Xaa1 -Ala-Thr-Ile-Asp-Xaa2 -Cys-Xaa2-Xaa2 -Thr-Cys-Asn-Val-Thr-Phe-Lys-Thr-Cys-Cys-Gly-Xaa3-Xaa3-Gly-Asp-Trp-Gln-Cys-Val-Xaa2-Ala-Cys-Pro-Val-OH, where Xaa3 =hydroxyproline, Xaa2 =Gla and Xaa1 =bromotryptophan [Bromosleeper Peptide]
[2]
  anticonvulsant activity: seen to have activity in this model
CF No. 1 mice
  anticonvulsant activity: found to have anticonvulsant activity
Mice [3]
  in vivo effect in very young (<2 weeks old) and older (>3 weeks old) mice: induced sleep in mice of both age groups
Mice [3]; in vivo
  Observed Effects in Mice: lethargic/drowsy after (onset time): ≈ 15 min; also recorded: ≈ 19 min; also recorded: ≈ 11 min
  dependence of potency on the age of the mice: more potent in 9-day-old mice than in the older mice
